Patent USRE42890E1, “Furazanobenzimidazoles” (Basilea Pharmaceutica AG, priority 2003, dated 2011)
Read-outs that look alike come from different tables or passages of the source.

How the values were obtained:
[1] = tested on: Jurkat; experiment: MTS proliferation assay, Jurkat; format: cell-based, human; details: 72 h incubation, read-out: MTS proliferation assay IC 50 Jurkat
Method in brief: (§1)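 Cells seeded 24 h before treatment in RPMI-1640 with 5% or 10% FCS. Compounds added at 10, 3, 1 and 0.3 μM final and incubated 72 h at 37 °C, 7.5% CO2. MTS reagent then added for 3 h, absorbance read at 492 nm.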

[2] = tested on: Jily; experiment: MTS proliferation assay, Jily; format: cell-based; details: 72 h incubation, read-out: MTS proliferation assay IC 50 Jily
Method in brief: (§2)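 Cells seeded 24 h before treatment in RPMI-1640 with 5% or 10% FCS, then exposed 72 h at 37 °C, 7.5% CO2, to compound at final 10, 3, 1 and 0.3 μM. Viability by MTS, 3 h further incubation, absorbance 492 nm.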

[3] = tested on: MRC5; experiment: MTS proliferation assay, MRC5; format: cell-based; details: MRC5, 72 h incubation, read-out: MTS proliferation assay IC 50 MRC5
Method in brief: as §2

[4] = tested on: adherent cells or suspension cells; experiment: Hoechst 33342 nuclear staining (fraction of apoptotic nuclei); format: cell-based; set-up: key: 0 relating to no activity; 1 relating to weak activity comprising less than 70% of the cells; score 2 relating to strong activity comprising more than 70% of the cells
[5] = tested on: HeLa; experiment: MTS proliferation assay, HeLa; format: cell-based, human; details: 72 h incubation, read-out: MTS proliferation assay IC 50 HeLa
Method in brief: as §1

[6] = tested on: HT1080; experiment: MTS proliferation assay, HT1080; format: cell-based, human; details: HT1080, 72 h incubation, read-out: MTS proliferation assay IC 50 HT1080
Method in brief: as §1

| Structure (SMILES) | IC50 [1] | IC50 [2] | IC50 [3] | Hoechst 33342 nuclear staining score ([4]; HeLa, conc 0.01 μm) | Hoechst 33342 nuclear staining score ([4]; HeLa, conc 0.1 μm) | Hoechst 33342 nuclear staining score ([4]; HeLa, conc 1 μm) | Hoechst 33342 nuclear staining score ([4]; Jily, conc 0.01 μm) | Hoechst 33342 nuclear staining score ([4]; Jily, conc 0.1 μm) | Hoechst 33342 nuclear staining score ([4]; Jily, conc 1 μm) | Hoechst 33342 nuclear staining score ([4]; Jurkat, conc 0.01 μm) | Hoechst 33342 nuclear staining score ([4]; Jurkat, conc 0.1 μm) | Hoechst 33342 nuclear staining score ([4]; Jurkat, conc 1 μm) | Hoechst 33342 nuclear staining score ([4]; MRC5, conc 0.01 μm) | Hoechst 33342 nuclear staining score ([4]; MRC5, conc 0.1 μm) | Hoechst 33342 nuclear staining score ([4]; MRC5, conc 1 μm) | Hoechst 33342 nuclear staining score ([4]; PBLs, conc 0.01 μm) | Hoechst 33342 nuclear staining score ([4]; PBLs, conc 0.1 μm) | Hoechst 33342 nuclear staining score ([4]; PBLs, conc 1 μm) | IC50 [5] | IC50 [6] | further results |
| --- | --- | --- | --- | --- | --- | --- | --- | --- | --- | --- | --- | --- | --- | --- | --- | --- | --- | --- | --- | --- | --- |
| Nc1nonc1-c1nc2ccccc2n1CC(=O)c1cccs1 [Example 72] | 100 to 1000 nM | 100 to 1000 nM | 100 to 1000 nM | 0 | 0 | 2 (score 2 relating to strong activity comprising more than 70% of the cells) | 0 | 0 | 2 (score 2 relating to strong activity comprising more than 70% of the cells) | 0 | 1 (1 relating to weak activity comprising less than 70% of the cells) | 2 (score 2 relating to strong activity comprising more than 70% of the cells) | 0 | 0 | 0 | 0 | 0 | 0 | 100 to 1000 nM | 100 to 1000 nM | Hoechst 33342 nuclear staining score ([4]; H460, conc 0.01 μm): 0; Hoechst 33342 nuclear staining score ([4]; H460, conc 0.1 μm): 0; Hoechst 33342 nuclear staining score ([4]; H460, conc 1 μm): 2 (score 2 relating to strong activity comprising more than 70% of the cells) |
| N#CCCNc1nonc1-c1nc2ccccc2n1COc1ccc(Cl)cc1 [Example 93] | 10 to 100 nM | 10 to 100 nM | 100 to 1000 nM | 0 | 0 | 2 (score 2 relating to strong activity comprising more than 70% of the cells) | 0 | 2 (score 2 relating to strong activity comprising more than 70% of the cells) | 2 (score 2 relating to strong activity comprising more than 70% of the cells) | 0 | 2 (score 2 relating to strong activity comprising more than 70% of the cells) | 2 (score 2 relating to strong activity comprising more than 70% of the cells) | 0 | 0 | 2 (score 2 relating to strong activity comprising more than 70% of the cells) | 0 | 0 | 0 | 100 to 1000 nM | 100 to 1000 nM | Hoechst 33342 nuclear staining score ([4]; H460, conc 0.01 μm): 0; Hoechst 33342 nuclear staining score ([4]; H460, conc 0.1 μm): 1 (1 relating to weak activity comprising less than 70% of the cells); Hoechst 33342 nuclear staining score ([4]; H460, conc 1 μm): 2 (score 2 relating to strong activity comprising more than 70% of the cells) |
| Cl.Nc1ccc(OCn2c(-c3nonc3N)nc3ccccc32)cc1 [Example 100] | 100 to 1000 nM | > 1000 nM | > 1000 nM | 0 | 0 | 0 | 0 | 0 | 1 (1 relating to weak activity comprising less than 70% of the cells) | 0 | 0 | 1 (1 relating to weak activity comprising less than 70% of the cells) | 0 | 0 | 0 | 0 | 0 | 0 | > 1000 nM | > 1000 nM | Hoechst 33342 nuclear staining score ([4]; H460, conc 0.01 μm): 0; Hoechst 33342 nuclear staining score ([4]; H460, conc 0.1 μm): 0; Hoechst 33342 nuclear staining score ([4]; H460, conc 1 μm): 0 |
| Nc1nonc1-c1nc2ccccc2n1CC(=O)c1cccc2ccccc12 [Example 41] | 100 to 1000 nM | 100 to 1000 nM | 100 to 1000 nM | 0 | 0 | 2 (score 2 relating to strong activity comprising more than 70% of the cells) | 0 | 0 | 2 (score 2 relating to strong activity comprising more than 70% of the cells) | 0 | 0 | 2 (score 2 relating to strong activity comprising more than 70% of the cells) | 0 | 0 | 0 | 0 | 0 | 1 (1 relating to weak activity comprising less than 70% of the cells) | 100 to 1000 nM | 100 to 1000 nM | – |
| Nc1nonc1-c1nc2ccccc2n1CC(=O)/C=C/c1ccccc1 [Example 12, E-1-[2-(4-Aminofurazan-3-yl)-benzimidazol-1-yl]-4-phenyl-but-3-en-2-one] | – | 100 to 1000 nM | – | 0 | 0 | 0 | 0 | 0 | 2 (score 2 relating to strong activity comprising more than 70% of the cells) | 0 | 0 | 2 (score 2 relating to strong activity comprising more than 70% of the cells) | 0 | 0 | 0 | 0 | 0 | 0 | – | – | IC50 ([1]; Homo sapiens): 100 to 1000 nM; IC50 ([3]; Homo sapiens): > 1000 nM; Hoechst 33342 nuclear staining score ([4]; H460, conc 0.01 μm): 0; Hoechst 33342 nuclear staining score ([4]; H460, conc 0.1 μm): 0; Hoechst 33342 nuclear staining score ([4]; H460, conc 1 μm): 0; IC50 ([5]; Homo sapiens): > 1000 nM; IC50 ([6]; Homo sapiens, HT-1080): > 1000 nM |
| Nc1nonc1-c1nc2ccccc2n1COc1ccc(Cl)cc1 [Example 88] | 100 to 1000 nM | 100 to 1000 nM | 100 to 1000 nM | 0 | 0 | 2 (score 2 relating to strong activity comprising more than 70% of the cells) | 0 | 0 | 1 (1 relating to weak activity comprising less than 70% of the cells) | 0 | 0 | 2 (score 2 relating to strong activity comprising more than 70% of the cells) | 0 | 0 | 0 | 0 | 0 | 0 | 100 to 1000 nM | 100 to 1000 nM | – |
| Cc1ccc(/C=C/C(=O)Cn2c(-c3nonc3N)nc3ccccc32)cc1 [Example 119] | > 1000 nM | > 1000 nM | > 1000 nM | 0 | 0 | 0 | 0 | 0 | 0 | 0 | 0 | 0 | 0 | 0 | 0 | 0 | 0 | 0 | > 1000 nM | > 1000 nM | Hoechst 33342 nuclear staining score ([4]; H460, conc 0.01 μm): 0; Hoechst 33342 nuclear staining score ([4]; H460, conc 0.1 μm): 0; Hoechst 33342 nuclear staining score ([4]; H460, conc 1 μm): 0 |
| Nc1nonc1-c1nc2ccccc2n1CC(=O)c1ccc(Cl)cc1Cl [Example 31] | 100 to 1000 nM | 100 to 1000 nM | 100 to 1000 nM | 0 | 0 | 0 | – | – | – | 0 | 0 | 1 (1 relating to weak activity comprising less than 70% of the cells) | 0 | 0 | 0 | 0 | 0 | 0 | 100 to 1000 nM | > 1000 nM | Hoechst 33342 nuclear staining score ([4]; H460, conc 0.01 μm): 0; Hoechst 33342 nuclear staining score ([4]; H460, conc 0.1 μm): 0; Hoechst 33342 nuclear staining score ([4]; H460, conc 1 μm): 0 |
